In US20100184848A1, “TRANSDERMAL FORMULATIONS OF SYNTHETIC CANNABINOIDS AND NANO COLLOIDAL SILICA” (priority 2006, published 2010):

Test system: patients in treatment for chronic neuropathic pain
Experiment: 42 patient physician-sponsored open label clinical study of the compounded transdermal formulation
Format: in vivo
Conditions: about 1/4 gm applied to site of pain twice a day; overall trial 18 months
Experimental: A number of examples of formulations of the invention were made. The formulations were used in the 42 patient open-label study of Example 2 and applied under “Cannacreme-C” 60 gm.
A 42 patient open label clinical study was performed as a physician sponsored study of patients in treatment for chronic pain with different diagnoses.
Patients ranged in age from 30 to 70 years old and were both male and female. […]
Outcome measures included a patient's own subjective report, clinician's notes, as well as questionnaires such as the McGill Pain Questionnnaire (Melzack R., Pain. 1:277-299, 1975), Fibromyalgia impact Questionnaire (Burckhardt, C. S. et al., J. Rheumatol. 18:728-733, 1991), Visual Analogue Pain Rating Scale (such as reviewed in Wewers M. E. and Lowe N. K. Res. Nursing Health 13:227-236, 1990), and Likert Pain Scales (Likert, R. Arch. Psychol. 140: 55, 1932). Objective electrophysiological monitoring including Quantitative Sensory Testing, Electromyogram, and Nerve Conduction Studies, as required from patient to patient. […]

With CCCCCCC(C)(C)c1cc(O)c2c(c1)OC(C)(C)C1CCC(=O)CC21 (stereo not shown) [Nabilone, 3-(1,1-dimethylheptyl)-6,6a,7,8,10,10a-hexahydro-1-hydroxy-6,6-dimethyl-9H-dibenzo[b,d]pyran-9-one] the “local site sensitization, irritation or Adverse Drug Reaction” value was “no reports of local site sensitization or irritation”.
